In patent publication US10738028B2, “Spiro three-membered ring, spiro five-membered ring peptide deformylase inhibitor and use thereof in antibacteria and anti-tumor” (priority 2016, dated 2020):
pIC50: −log10 of the molar value. Read-outs that look alike come from different tables or passages of the source.

Legend:
Type in all cases: cell-based
[1] = tested on: methicillin-sensitive Staphylococcus aureus (MSSA); experiment: MIC, two-fold agar dilution (CLSI), clinical isolates
Method in brief: (§1)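 Test samples were assayed by the CLSI-recommended two-fold agar dilution method, and the minimum inhibitory concentration against each tested strain was determined.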

[2] = tested on: methicillin-resistant Staphylococcus aureus (MRSA); experiment: as above
Method in brief: as §1

[3] = tested on: Enterococcus faecium (EFM); experiment: as above
Method in brief: as §1

[4] = tested on: Escherichia coli (including ESBLs, non-ESBLs); experiment: as above
Method in brief: as §1

[5] = tested on: methicillin-resistant Staphylococcus epidermidis (MRSE); experiment: as above
Method in brief: as §1

[6] = tested on: Enterococcus faecalis (EFA); experiment: as above
Method in brief: as §1

[7] = tested on: methicillin-sensitive Staphylococcus epidermidis (MSSE); experiment: as above
Method in brief: as §1

[8] = tested on: Streptococcus pneoumoniae (SPN); experiment: as above
Method in brief: as §1

[9] = tested on: Moraxella catarrhalis (BCA); experiment: as above; details: for Anti-bacterial activity (MIC), strain BCA 14-10: clinical isolate BCA 14-10
Method in brief: as §1

[10] = tested on: HCT-116 colorectal cancer cell line; experiment: CCK-8 proliferation inhibition; details: 72 hours, CCK-8; for inhibition at 30 µM: HCT-116, 72 h
Method in brief: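 Cells were plated overnight at 2000 cells/well, then compound in culture medium was added at a range of final concentrations. After 72 hours in a CO2 incubator, medium was replaced with 1:10 CCK-8 solution for the read-out.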

[11] = tested on: A549 lung cancer cell line; experiment: CCK-8 proliferation inhibition; details: Homo sapiens; for inhibition at 30 µM: A549, 72 h, concentration of 30 μM
Excerpt: (§2) 2. The present invention adopts the CCK-8 method to determine the proliferation inhibition effect of the spiro three-membered ring, spiro five-membered ring peptide deformylase inhibitor as described in Examples 1-80 against colorectal cancer cells, lung cancer cells, gastric cancer cells, liver cancer cells, and the like. […] The compound having the best activity synthesized in Example 64 was further tested for its inhibitory activity against other tumor cells including T cell leukemia, acute myeloid leukemia, cervical cancer, breast cancer, prostate cancer and osteosarcoma, and the like (see Table 7).
(§3) (1) HCT-116 colorectal cancer cell line, A549 lung cancer cell line, MGC-803 gastric cancer cell line, BEL-7402 liver cancer cell line, Jurkat T cell leukemia cell line, HL60 acute myeloid leukemia cell line, Hela cervical cancer cell line, MCF-7 breast cancer cell line, PC3 prostate cancer cell line and SAOS-2 osteosarcoma cell line were made into single cell suspension, 180 μL of which was inoculated into 96-well culture plate, which was cultured overnight in CO2 incubator (37° C., 5% CO2, 95% air).
(§4) (2) Each of the spiro three-membered ring, spiro five membered ring peptide deformylase inhibitors was dissolved in DMSO, and was further formulated into drug solution with required different final concentration using corresponding cell culture medium. The drug solutions were added to the above cells respectively (20 μL/well), with the control group added with 1‰ DMSO, and cultured in a CO2 incubator for 72 hours.
(§5) (3) After incubation for 72 hours, the culture solution was decanted, and 100 μL of 1:10 diluted CCK-8 solution was added.
(§6) Wherein, in step (1), the concentration of the single cell suspension was 2000 cells/well.
(§7) Wherein, in step (2), HCT-116 cells were cultured in McCoy's 5A medium (containing 10% newborn bovine serum, 1% double antibody); A549 and PC3 cells were cultured in F12 medium (containing 10% newborn bovine serum, 1% double antibody); MGC-803, BEL-7402, SAOS-2, Jurkat and HL60 cells were cultured in 1640 medium (containing 10% newborn bovine serum, 1% double antibody); and MCF-7 and Hela cells were cultured in DMEM high glucose medium (containing 10% newborn bovine serum, 1% double antibody).

[12] = tested on: BEL-7402 liver cancer cell line; experiment: CCK-8 proliferation inhibition
Excerpt: as §2, §3, §4, §5, §6, §7

[13] = tested on: MGC-803 gastric cancer cell line; experiment: CCK-8 proliferation inhibition
Excerpt: as §2, §3, §4, §5, §6, §7

[14] = concentration of 30 μM, 72 hours, 30 µM

Cc1cnc(NC(=O)[C@@H]2CC3(CC3)CN2C(=O)[C@H](CC2CCCC2)CN(O)C=O)s1 [Example 29, (S)-5-((R)-3-cyclopentylmethyl-2-((N-hydroxyformamido)methyl)propionyl)-N-(5-methylthiazol-2-yl)-5-spiro[2.4]heptane-6-carboxamide]
16 µg/mL: MIC (anti-bacterial activity) ([4]; strain ECO+ 15-1) | MIC (anti-bacterial activity) ([4]; strain ECO+ 15-3) | MIC (anti-bacterial activity) ([4]; strain ECO+ 15-4) | MIC (anti-bacterial activity) ([4]; strain ECO− 15-1) | MIC (anti-bacterial activity) ([4]; strain ECO− 15-2) | MIC (anti-bacterial activity) ([4]; strain ECO− 15-4)
32 µg/mL: MIC (anti-bacterial activity) ([4]; strain ECO+ 15-2) | MIC (anti-bacterial activity) ([4]; strain ECO− 15-3)
2 µg/mL: MIC (anti-bacterial activity) ([6]; strain EFA 15-9)
4 µg/mL: MIC (anti-bacterial activity) ([6]; strain EFA 15-1) | MIC (anti-bacterial activity) ([6]; strain EFA 15-2) | MIC (anti-bacterial activity) ([6]; strain EFA 15-4) | MIC (anti-bacterial activity) ([6]; strain EFA 15-5) | MIC (anti-bacterial activity) ([6]; strain EFA 15-6) | MIC (anti-bacterial activity) ([8]; strain SPN 16-4)
0.06 µg/mL: MIC (anti-bacterial activity) ([2]; strain MRSA 15-3) | MIC (anti-bacterial activity) ([5]; strain MRSE 15-1) | MIC (anti-bacterial activity) ([7]; strain MSSE 15-6)
0.5 µg/mL: MIC (anti-bacterial activity) ([3]; strain EFM 15-3) | MIC (anti-bacterial activity) ([9]; strain BCA 14-1) | MIC (anti-bacterial activity) ([9]; strain BCA 14-4)
36%: inhibition at 30 µM [11]
5.12: pIC50 ([12]; Homo sapiens, Bel-7402, 72 hours)
0.25 µg/mL: Anti-bacterial activity (MIC), strain BCA 14-10 [9] | MIC (anti-bacterial activity) ([9]; strain BCA 14-6) | MIC (anti-bacterial activity) ([9]; strain BCA 14-8)
78%: Inhibition of proliferation, Gastric cancer MGC-803 [13, 14]
79%: Inhibition of proliferation, Liver cancer BEL-7402 [12, 14]
5.05: pIC50 ([10]; Homo sapiens, HCT-116)
0.125 µg/mL: MIC (anti-bacterial activity) ([1]; strain MSSA 15-3) | MIC (anti-bacterial activity) ([1]; strain MSSA 15-4) | MIC (anti-bacterial activity) ([1]; strain MSSA 15-5) | MIC (anti-bacterial activity) ([1]; strain MSSA 15-6) | MIC (anti-bacterial activity) ([2]; strain MRSA 15-1) | MIC (anti-bacterial activity) ([2]; strain MRSA 15-2) | MIC (anti-bacterial activity) ([2]; strain MRSA 15-4) | MIC (anti-bacterial activity) ([5]; strain MRSE 15-2) | MIC (anti-bacterial activity) ([5]; strain MRSE 15-3) | MIC (anti-bacterial activity) ([5]; strain MRSE 15-7) | MIC (anti-bacterial activity) ([7]; strain MSSE 15-3) | MIC (anti-bacterial activity) ([7]; strain MSSE 15-4) | MIC (anti-bacterial activity) ([7]; strain MSSE 15-5) | MIC (anti-bacterial activity) ([9]; strain BCA 14-5) | MIC (anti-bacterial activity) ([9]; strain BCA 14-7)
1 µg/mL: MIC (anti-bacterial activity) ([3]; strain EFM 15-1) | MIC (anti-bacterial activity) ([3]; strain EFM 15-2) | MIC (anti-bacterial activity) ([3]; strain EFM 15-4) | MIC (anti-bacterial activity) ([3]; strain EFM 15-5) | MIC (anti-bacterial activity) ([3]; strain EFM 15-6) | MIC (anti-bacterial activity) ([6]; strain EFA 15-3)
94%: HCT116 inhibition rate/% ([10]; concentration of 30 μM, 30 µM)
5.11: pIC50 ([13]; Homo sapiens, MGC-803, 72 hours)
4.87: pIC50 ([11]; A549, 72 hours)

O=CN(O)C[C@@H](CC1CCCC1)C(=O)N1CC2(CC2)C[C@H]1C(=O)NC1CC1 [Example 32, (S)-5-((R)-3-cyclopentyl-2-((N-hydroxyformamido)methyl)propionyl)-N-cyclopropyl-5-azaspiro[2.4]heptane-6-carboxamide]
> 32 µg/mL: MIC (anti-bacterial activity) ([4]; strain ECO+ 15-2) | MIC (anti-bacterial activity) ([4]; strain ECO+ 15-3) | MIC (anti-bacterial activity) ([4]; strain ECO− 15-2) | MIC (anti-bacterial activity) ([4]; strain ECO− 15-3) | MIC (anti-bacterial activity) ([4]; strain ECO− 15-4)
30%: inhibition at 30 µM ([10]; Homo sapiens, concentration of 30 μM, read-out: HCT116 inhibition rate/%)
4 µg/mL: MIC (anti-bacterial activity) ([3]; strain EFM 15-1) | MIC (anti-bacterial activity) ([3]; strain EFM 15-2) | MIC (anti-bacterial activity) ([3]; strain EFM 15-4) | MIC (anti-bacterial activity) ([3]; strain EFM 15-5) | MIC (anti-bacterial activity) ([3]; strain EFM 15-6) | MIC (anti-bacterial activity) ([9]; strain BCA 14-1) | MIC (anti-bacterial activity) ([9]; strain BCA 14-4)
8 µg/mL: MIC (anti-bacterial activity) ([5]; strain MRSE 15-3) | MIC (anti-bacterial activity) ([5]; strain MRSE 15-7) | MIC (anti-bacterial activity) ([6]; strain EFA 15-1) | MIC (anti-bacterial activity) ([6]; strain EFA 15-2) | MIC (anti-bacterial activity) ([6]; strain EFA 15-3) | MIC (anti-bacterial activity) ([6]; strain EFA 15-4) | MIC (anti-bacterial activity) ([6]; strain EFA 15-5) | MIC (anti-bacterial activity) ([6]; strain EFA 15-6) | MIC (anti-bacterial activity) ([6]; strain EFA 15-9) | MIC (anti-bacterial activity) ([8]; strain SPN 16-4) | MIC (anti-bacterial activity) ([9]; strain BCA 14-6) | MIC (anti-bacterial activity) ([9]; strain BCA 14-8)
≥ 30%: inhibition at 30 µM ([10]; Homo sapiens, concentration of 30 μM, Table 5, read-out: Inhibition of proliferation, Colorectal cancer HCT116)
32 µg/mL: MIC (anti-bacterial activity) ([4]; strain ECO+ 15-1) | MIC (anti-bacterial activity) ([4]; strain ECO+ 15-4) | MIC (anti-bacterial activity) ([4]; strain ECO− 15-1)
1 µg/mL: MIC (anti-bacterial activity) ([1]; strain MSSA 15-4) | MIC (anti-bacterial activity) ([1]; strain MSSA 15-5) | MIC (anti-bacterial activity) ([2]; strain MRSA 15-1) | MIC (anti-bacterial activity) ([2]; strain MRSA 15-2) | MIC (anti-bacterial activity) ([2]; strain MRSA 15-3) | MIC (anti-bacterial activity) ([2]; strain MRSA 15-4) | MIC (anti-bacterial activity) ([3]; strain EFM 15-3) | MIC (anti-bacterial activity) ([5]; strain MRSE 15-1) | MIC (anti-bacterial activity) ([8]; strain SPN 16-2) | Anti-bacterial activity (MIC), strain BCA 14-10 [9] | MIC (anti-bacterial activity) ([9]; strain BCA 14-7)
46%: inhibition at 30 µM ([12]; Homo sapiens, Bel-7402, 72 h, concentration of 30 μM)
14%: inhibition at 30 µM [11] | inhibition at 30 µM ([13]; Homo sapiens, MGC-803, 72 h, concentration of 30 μM)
2 µg/mL: MIC (anti-bacterial activity) ([1]; strain MSSA 15-3) | MIC (anti-bacterial activity) ([1]; strain MSSA 15-6) | MIC (anti-bacterial activity) ([5]; strain MRSE 15-2) | MIC (anti-bacterial activity) ([7]; strain MSSE 15-3) | MIC (anti-bacterial activity) ([7]; strain MSSE 15-4) | MIC (anti-bacterial activity) ([7]; strain MSSE 15-5) | MIC (anti-bacterial activity) ([7]; strain MSSE 15-6) | MIC (anti-bacterial activity) ([9]; strain BCA 14-5)
